In one series the target is T1, Human IBAT (Homo sapiens, UniProt Q12908).
T1 construct: expressed in transfected cells; cells kept under Puromycin selection
T1 sequence (Q12908 1-348): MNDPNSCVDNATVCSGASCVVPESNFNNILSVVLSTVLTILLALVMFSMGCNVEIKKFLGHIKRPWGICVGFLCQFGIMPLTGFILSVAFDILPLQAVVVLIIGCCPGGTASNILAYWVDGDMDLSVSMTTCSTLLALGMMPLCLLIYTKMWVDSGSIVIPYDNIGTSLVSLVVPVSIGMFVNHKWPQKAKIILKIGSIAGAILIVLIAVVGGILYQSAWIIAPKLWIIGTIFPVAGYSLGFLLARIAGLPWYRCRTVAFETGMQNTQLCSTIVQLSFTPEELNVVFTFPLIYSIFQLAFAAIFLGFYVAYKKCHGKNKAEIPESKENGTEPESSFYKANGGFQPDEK
Nature of the series: IBAT (h) assay: 3H-taurocholic acid uptake in human IBAT-overexpressing cells. Type of series: cell-based. The note with it: 0.25 μM 3H-taurocholic acid and 5 μM cold taurocholic acid, 20 minutes, read-out: hIBAT IC50. As for the experimental part: 10,000 cells (Human or Mouse IBAT-overexpressing cells) were seeded in 96-wells plate (Corning CLS3809) in 200 μL MEM-alpha medium (Gibco 12571-063) supplemented with 10% FBS (Gibco 10438026) containing Puromycin (Gibco A1113803) (10 μg/mL) and incubated at 37° C. in 5% CO2 for 48 hours. After incubation, media was decanted from the wells and cells were washed two times with 300 μL of basal MEM-alpha medium (FBS-free). After decanting basal MEM-alpha medium each time, plates were tapped against paper towel to ensure maximum removal of residual media. Test inhibitor dilutions (highest test concentration being 10 μM, 3-fold serial dilution, 10 points) prepared in DMSO (Sigma D2650) were added in incubation mix (maintaining 0.2% final DMSO concentration) containing 0.25 μM 3H-taurocholic acid (ARC ART-1368) and 5 μM of cold taurocholic acid (Sigma T4009). 50 μL of incubation mix containing test inhibitors was then added to the wells (in duplicate) and the plates were incubated for 20 minutes in a CO2 incubator at 37° C. After incubation, the reaction was stopped by keeping the plates on ice water mix for 2-3 minutes and then the incubation mix was aspirated completely from the wells. The wells were washed two times with 250 μL of chilled unlabelled 1 mM taurocholic acid dissolved in HEPES (Gibco 15630080)-buffered (10 mM) HBSS (Gibco 14175079) (pH 7.4). The plates were tapped against a paper towel after every wash to ensure maximum removal of blocking buffer.
100 μL of MicroScint-20 (PerkinElmer 6013621) was added to the wells and kept overnight at room temperature before reading the plates in TopCount NXT™ Microplate Scintillation and Luminescence Counter from PerkinElmer under 3H Test protocol (set at 120 seconds reading time per well).
All test compounds were provided in powder form at room temperature. 10 mM DMSO stocks of the test compounds were prepared, aliquoted and stored at −20° C. From the 10 mM DMSO stock of the compounds, a 3-fold serial dilution in DMSO was prepared to get a total of 10 dilutions of the test compounds. 0.5 μL of this dilution in DMSO was added to 250 μL of FBS-free basal media containing 3H-taurocholic acid and cold taurocholic acid to prepare the incubation mixture.

Series [1] in a line: Bidirectional permeability assay (Caco-2 cells). Type of series: in vitro ADME. Conditions: human, Caco-2, pH 7.4, 10 μM in FaSSIF buffer, 120 minutes at 37° C.; for Papp A→B at 120 min, 10 μM: absorptive direction (A2B); for Papp B→A at 120 min, 10 μM: secretory direction (B2A). As to the method:
Caco-2 cells (Evotec) were seeded at a density of 70,000 cells/well in Millicell® 24-well cell culture insert plates and maintained in an incubator (37° C., 5% CO2, 95% RH) for 21 days with media change on alternate days.
Stock solutions (10 mM) of the test compounds, atenolol (low permeability marker), propranolol (high permeability marker) and digoxin (substrate for P-gp transport pathway) were prepared in dimethylsulfoxide (DMSO). An intermediate stock solution (1 mM) was prepared by diluting 10 μL of 10 mM master stock solution with 90 μL of neat DMSO. A working stock solution (10 μM) was prepared by diluting 50 μL of 1 mM with 4950 μL of FaSSIF buffer. Post addition of compounds to the FaSSIF, samples were subjected to sonication for 2 hours, and centrifuged at 4000 RPM for 30 minutes at 37° C. The 4 mL of resultant supernatant was directly used in the assay. The final DMSO concentration in the transport experiments was 1%.
On the day of assay, Caco-2 monolayers were washed twice with transport buffer (HBSS, pH 7.4) and pre-incubated for 30 min (37° C., 5% CO2, 95% RH) in an incubator. The electrical resistance of the monolayers was measured with a Millicell®-ERS system. Monolayers with trans-epithelial electrical resistance (TEER) values greater than 350 ohm·cm^2 were selected for the assay.
The assay was conducted in absorptive direction (A2B) and secretory (B2A) directions. Transport experiments were initiated by addition of transport assay buffer (FaSSIF buffer prepared in HBSS) consisting of compounds to the donor compartment (apical chamber A-B; basolateral chamber B-A) in duplicate (n=2) wells. Drug free HBSS buffer (pH 7.4) containing 1% bovine serum albumin (BSA) was introduced to the receiver (A-B-basolateral; B-A-Apical) compartments. The volumes of apical and basolateral compartments were 0.4 and 0.8 mL, respectively. After adding dosing solution, plates were incubated in an incubator for 120 minutes at 37° C. After 120 minutes, donor and receiver samples were collected and matrix matched (1:1, 30 μL study sample+30 μL blank buffer) with the opposite buffer. Dosing samples matrix matched (1:1, 30 μL study sample+30 μL blank buffer) with the opposite buffer. Samples were processed by adding acetonitrile containing internal standard (60 μL study sample+200 μL acetonitrile containing internal standard-Tolbutamide, 500 ng/mL). Samples were vortexed and centrifuged at 4000 rpm for 10 minutes. The obtained supernatant (100 μL) was diluted with 100 μL of water and transferred to fresh 96 well plates. The concentration of compounds in the samples was analyzed by liquid chromatography tandem mass spectrometry (LC-MS/MS) method using discovery grade bio-analytical method, as applicable.
The mean apparent permeability (Papp×10^−6 cm/sec) of the test compounds, atenolol, propranolol and digoxin were calculated as follows:
where dq/dt=rate of transport (rate of transport of compound in the receiver compartment), C0=initial concentration in the donor compartment, A=surface area of the effective filter membrane.

Results on ten molecules are retold here after patent US11014898B1, “Benzothiazepine compounds and their use as bile acid modulators” (Albireo AB, priority 2020, dated 2021).

Each structure is given as a SMILES string.

The term IC50 denotes the concentration needed to halve the response being measured. The Papp A→B is how fast a substance crosses the layer from the apical side. As a reminder, the Papp B→A is the apparent permeability from the basolateral to the apical side of a cell layer. Turning to `CCCCC1(CCCC)CN(c2ccccc2)c2cc(N(C)C)c(OCC(=O)O)cc2S(=O)(=O)C1` [Example 1, 2-((3,3-dibutyl-7-(dimethylamino)-1,1-dioxido-5-phenyl-2,3,4,5-tetrahydro-1,5-benzothiazepin-8-yl)oxy)acetic Acid], the 50% inhibitory concentration (IC50) on Human IBAT is 24 nM. In series [1], this molecule returned a Papp A→B at 120 min, 10 μM of 3.2 ×10⁻⁶ cm/s and a Papp B→A at 120 min, 10 μM of 9.4 ×10⁻⁶ cm/s. The matching figures for `CCCCC1(CC)CN(c2ccc(F)cc2)c2cc(SC)c(OCC(=O)O)cc2S(=O)(=O)C1` (single isomer, unassigned) [Example 15, 2-((3-butyl-3-ethyl-5-(4-fluorophenyl)-7-(methylthio)-1,1-dioxido-2,3,4,5-tetrahydro-1,5-benzothiazepin-8-yl)oxy)acetic acid]: 2.4 nM, 8.7 ×10⁻⁶ cm/s and 12.9 ×10⁻⁶ cm/s. With `CCCCC1(CC)CN(c2ccc(OC)cc2)c2cc(SC)c(OCC(=O)O)cc2S(=O)(=O)C1` (stereo not shown) [Example 18, 2-((3-butyl-3-ethyl-5-(4-methoxyphenyl)-7-(methylthio)-1,1-dioxido-2,3,4,5-tetrahydro-1,5-benzothiazepin-8-yl)oxy)acetic Acid], the half-maximal inhibitory concentration (IC50) on Human IBAT is 17 nM. On to `CCCCC1(CC)CN(c2ccc(O)cc2)c2cc(SC)c(OCC(=O)O)cc2S(=O)(=O)C1` (single isomer, unassigned) [Example 19, 2-((3-butyl-3-ethyl-5-(4-hydroxyphenyl)-7-(methylthio)-1,1-dioxido-2,3,4,5-tetrahydro-1,5-benzothiazepin-8-yl)oxy)acetic Acid], for which, at Human IBAT, the IC50 stood at 705 nM. As to `CCCCC1(CC)CN(c2ccc(F)cc2)c2cc(SC)c(OCC(=O)O)cc2S(=O)(=O)C1` (racemic) [Example 14, 2-((3-butyl-3-ethyl-5-(4-fluorophenyl)-7-(methylthio)-1,1-dioxido-2,3,4,5-tetrahydro-1,5-benzothiazepin-8-yl)oxy)acetic Acid], the IC50 on Human IBAT was 6.4 nM. Still for that read-out and setting: the figure for `CCCCC1(CC)CN(c2ccc(F)cc2)c2cc(SC)c(OCC(=O)O)cc2S(=O)(=O)C1` (single isomer, unassigned) [Example 16, 2-((3-butyl-3-ethyl-5-(4-fluorophenyl)-7-(methylthio)-1,1-dioxido-2,3,4,5-tetrahydro-1,5-benzothiazepin-8-yl)oxy)acetic acid] is 64 nM. `CCCCC1(CC)CN(c2ccccc2)c2cc(N(C)C)c(OCC(=O)O)cc2S(=O)(=O)C1` (racemic) [Example 7, 2-((3-butyl-7-(dimethylamino)-3-ethyl-1,1-dioxido-5-phenyl-2,3,4,5-tetrahydro-1,5-benzothiazepin-8-yl)oxy)acetic Acid]: on Human IBAT, the half-inhibitory concentration (IC50) came to 14 nM. As for `CCCCC1(CCCC)CN(c2ccc(OC)cc2)c2cc(SC)c(OCC(=O)O)cc2S(=O)(=O)C1` [Example 2, 2-((3,3-dibutyl-5-(4-methoxyphenyl)-7-(methylthio)-1,1-dioxido-2,3,4,5-tetrahydro-1,5-benzothiazepin-8-yl)oxy)acetic Acid], the IC50 on Human IBAT worked out at 38 nM. In series [1], the apical-to-basolateral permeability (Papp A→B) at 120 min, 10 μM is 4.3 ×10⁻⁶ cm/s and the Papp B→A at 120 min, 10 μM was determined as 6.6 ×10⁻⁶ cm/s.

For `CCCCC1(CC)CN(c2ccccc2)c2cc(N(C)C)c(OCC(=O)O)cc2S(=O)(=O)C1` (single isomer, unassigned) [Example 9, 2-((3-butyl-7-(dimethylamino)-3-ethyl-1,1-dioxido-5-phenyl-2,3,4,5-tetrahydro-1,5-benzothiazepin-8-yl)oxy)acetic Acid], the IC50 at Human IBAT is 217 nM. Still for that read-out and setting: the figure for `CCCCC1(CC)CN(c2ccc(O)cc2)c2cc(SC)c(OCC(=O)O)cc2S(=O)(=O)C1` (racemic) [Example 17, 2-((3-butyl-3-ethyl-5-(4-hydroxyphenyl)-7-(methylthio)-1,1-dioxido-2,3,4,5-tetrahydro-1,5-benzothiazepin-8-yl)oxy)acetic Acid] is 19 nM.
